Results taken from the supplement of paper PMC13380429.

Assays:
Details in all cases: 72 h
Caco-2 [1] = assay: cell viability relative to DMSO; higher = less toxic
Calu-3 [2] = assay: as above
HepG2 [3] = assay: as above
U2OS [4] = assay: as above
Vero E6 [5] = assay: as above
Calu-3 [6] = assay: relative viability EC50 (midpoint between 100% and the lowest measured viability); higher = less toxic
HepG2 [7] = assay: as above
U2OS [8] = assay: as above
Vero E6 [9] = assay: as above
Caco-2 [10] = assay: drug sensitivity score (DSS) for viability; higher = more toxic; extreme values may be limits of the assay
Calu-3 [11] = assay: as above
HepG2 [12] = assay: as above
U2OS [13] = assay: as above
Vero E6 [14] = assay: as above
Caco-2 [15] = assay: relative viability EC50 (midpoint between 100% and the lowest measured viability); higher = less toxic

SMILES: CC(C)CC(=O)Nc1n[nH]c2c1CN(C(=O)C1CCN(C)CC1)C2(C)C
- cell viability (Caco-2 [1]; 1 nM): 99.1%
- cell viability (Caco-2 [1]; 10 nM): 98.9%
- cell viability (Caco-2 [1]; 100 nM): 85.6%
- cell viability (Caco-2 [1]; 1000 nM): 76.9%
- cell viability (Caco-2 [1]; 10000 nM): 51%
- cell viability (Calu-3 [2]; 1 nM): 98.7%
- cell viability (Calu-3 [2]; 10 nM): 90.7%
- cell viability (Calu-3 [2]; 100 nM): 93.6%
- cell viability (Calu-3 [2]; 1000 nM): 89.6%
- cell viability (Calu-3 [2]; 10000 nM): 37.6%
- cell viability (HepG2 [3]; 1 nM): 103%
- cell viability (HepG2 [3]; 10 nM): 115%
- cell viability (HepG2 [3]; 100 nM): 102%
- cell viability (HepG2 [3]; 1000 nM): 51.9%
- cell viability (HepG2 [3]; 10000 nM): 9.7%
- cell viability (U2OS [4]; 1 nM): 101%
- cell viability (U2OS [4]; 10 nM): 102%
- cell viability (U2OS [4]; 100 nM): 94%
- cell viability (U2OS [4]; 1000 nM): 68.7%
- cell viability (U2OS [4]; 10000 nM): 15%
- cell viability (Vero E6 [5]; 1 nM): 103%
- cell viability (Vero E6 [5]; 10 nM): 106%
- cell viability (Vero E6 [5]; 100 nM): 104%
- cell viability (Vero E6 [5]; 1000 nM): 100%
- cell viability (Vero E6 [5]; 10000 nM): 85.7%
- relative viability EC50 (Calu-3 [6]): 1890 nM
- relative viability EC50 (HepG2 [7]): 950 nM
- relative viability EC50 (U2OS [8]): 1320 nM
- relative viability EC50 (Vero E6 [9]): > 10000 nM
- drug sensitivity score (Caco-2 [10]): 5.8
- drug sensitivity score (Calu-3 [11]): 5.2
- drug sensitivity score (HepG2 [12]): 10.9
- drug sensitivity score (U2OS [13]): 8.5
- drug sensitivity score (Vero E6 [14]): 0.2

SMILES: CCCCOc1ccc(-c2cncc(C(=O)NCc3cccnc3N3CCOCC3)c2)cc1Cl
- cell viability (Caco-2 [1]; 1 nM): 92.8%
- cell viability (Caco-2 [1]; 10 nM): 104%
- cell viability (Caco-2 [1]; 100 nM): 94.7%
- cell viability (Caco-2 [1]; 1000 nM): 102%
- cell viability (Caco-2 [1]; 10000 nM): 74.8%
- cell viability (Calu-3 [2]; 1 nM): 107%
- cell viability (Calu-3 [2]; 10 nM): 96.4%
- cell viability (Calu-3 [2]; 100 nM): 92.9%
- cell viability (Calu-3 [2]; 1000 nM): 104%
- cell viability (Calu-3 [2]; 10000 nM): 90.4%
- cell viability (HepG2 [3]; 1 nM): 99.7%
- cell viability (HepG2 [3]; 10 nM): 93%
- cell viability (HepG2 [3]; 100 nM): 113%
- cell viability (HepG2 [3]; 1000 nM): 106%
- cell viability (HepG2 [3]; 10000 nM): 106%
- cell viability (U2OS [4]; 1 nM): 104%
- cell viability (U2OS [4]; 10 nM): 103%
- cell viability (U2OS [4]; 100 nM): 99.5%
- cell viability (U2OS [4]; 1000 nM): 106%
- cell viability (U2OS [4]; 10000 nM): 92.8%
- cell viability (Vero E6 [5]; 1 nM): 102%
- cell viability (Vero E6 [5]; 10 nM): 102%
- cell viability (Vero E6 [5]; 100 nM): 100%
- cell viability (Vero E6 [5]; 1000 nM): 96.5%
- cell viability (Vero E6 [5]; 10000 nM): 94.4%
- relative viability EC50 (Calu-3 [6]): > 10000 nM
- relative viability EC50 (HepG2 [7]): > 10000 nM
- relative viability EC50 (U2OS [8]): > 10000 nM
- relative viability EC50 (Vero E6 [9]): > 10000 nM
- drug sensitivity score (Caco-2 [10]): 0.8
- drug sensitivity score (Calu-3 [11]): 0
- drug sensitivity score (HepG2 [12]): 0
- drug sensitivity score (U2OS [13]): 0
- drug sensitivity score (Vero E6 [14]): 0

SMILES: CC(C)c1nnc(-c2ccc(-c3ccccc3)nc2)n1-c1cccc2nonc12 [ASP-2535]
- cell viability (Caco-2 [1]; 1 nM): 104%
- cell viability (Caco-2 [1]; 10 nM): 99%
- cell viability (Caco-2 [1]; 100 nM): 96.4%
- cell viability (Caco-2 [1]; 1000 nM): 95.5%
- cell viability (Caco-2 [1]; 10000 nM): 96.2%
- cell viability (Calu-3 [2]; 1 nM): 103%
- cell viability (Calu-3 [2]; 10 nM): 92.2%
- cell viability (Calu-3 [2]; 100 nM): 103%
- cell viability (Calu-3 [2]; 1000 nM): 93.3%
- cell viability (Calu-3 [2]; 10000 nM): 103%
- cell viability (HepG2 [3]; 1 nM): 104%
- cell viability (HepG2 [3]; 10 nM): 106%
- cell viability (HepG2 [3]; 100 nM): 107%
- cell viability (HepG2 [3]; 1000 nM): 107%
- cell viability (HepG2 [3]; 10000 nM): 88.7%
- cell viability (Vero E6 [5]; 1 nM): 98.8%
- cell viability (Vero E6 [5]; 10 nM): 102%
- cell viability (Vero E6 [5]; 100 nM): 97.8%
- cell viability (Vero E6 [5]; 1000 nM): 102%
- cell viability (Vero E6 [5]; 10000 nM): 92.9%
- relative viability EC50 (Caco-2 [15]): > 10000 nM
- relative viability EC50 (Calu-3 [6]): > 10000 nM
- relative viability EC50 (HepG2 [7]): > 10000 nM
- relative viability EC50 (Vero E6 [9]): > 10000 nM
- drug sensitivity score (Caco-2 [10]): 0
- drug sensitivity score (Calu-3 [11]): 0
- drug sensitivity score (HepG2 [12]): 0
- drug sensitivity score (Vero E6 [14]): 0

SMILES: CC(=O)N1CCN(CCOc2ccc(C3CCN(C4=Nn5c(nnc5C(F)(F)F)CC4)CC3)cc2)CC1 [AZD3514]
- cell viability (Caco-2 [1]; 1 nM): 90.2%
- cell viability (Caco-2 [1]; 10 nM): 99.3%
- cell viability (Caco-2 [1]; 100 nM): 93.7%
- cell viability (Caco-2 [1]; 1000 nM): 98.3%
- cell viability (Caco-2 [1]; 10000 nM): 75.9%
- cell viability (Calu-3 [2]; 1 nM): 98.2%
- cell viability (Calu-3 [2]; 10 nM): 96.1%
- cell viability (Calu-3 [2]; 100 nM): 89.4%
- cell viability (Calu-3 [2]; 1000 nM): 107%
- cell viability (Calu-3 [2]; 10000 nM): 91%
- cell viability (HepG2 [3]; 1 nM): 88.9%
- cell viability (HepG2 [3]; 10 nM): 95.9%
- cell viability (HepG2 [3]; 100 nM): 82.4%
- cell viability (HepG2 [3]; 1000 nM): 91.4%
- cell viability (HepG2 [3]; 10000 nM): 43.2%
- cell viability (U2OS [4]; 1 nM): 99.8%
- cell viability (U2OS [4]; 10 nM): 94%
- cell viability (U2OS [4]; 100 nM): 99.4%
- cell viability (U2OS [4]; 1000 nM): 94.9%
- cell viability (U2OS [4]; 10000 nM): 69.9%
- cell viability (Vero E6 [5]; 1 nM): 104%
- cell viability (Vero E6 [5]; 10 nM): 98.3%
- cell viability (Vero E6 [5]; 100 nM): 92.2%
- cell viability (Vero E6 [5]; 1000 nM): 90.7%
- cell viability (Vero E6 [5]; 10000 nM): 59.1%
- relative viability EC50 (Caco-2 [15]): > 10000 nM
- relative viability EC50 (Calu-3 [6]): > 10000 nM
- relative viability EC50 (HepG2 [7]): 1970 nM
- drug sensitivity score (Caco-2 [10]): 1.1
- drug sensitivity score (Calu-3 [11]): 0
- drug sensitivity score (HepG2 [12]): 4.5
- drug sensitivity score (U2OS [13]): 2.1
- drug sensitivity score (Vero E6 [14]): 3.4

SMILES: Cc1nc(C)c(-c2ccc(C3CCC(CC(=O)O)CC3)cc2)nc1C(N)=O (stereo unspecified) [AZD7687]
- cell viability (Caco-2 [1]; 1 nM): 116%
- cell viability (Caco-2 [1]; 10 nM): 99.6%
- cell viability (Caco-2 [1]; 100 nM): 97.7%
- cell viability (Caco-2 [1]; 1000 nM): 102%
- cell viability (Caco-2 [1]; 10000 nM): 86.2%
- cell viability (Calu-3 [2]; 1 nM): 104%
- cell viability (Calu-3 [2]; 10 nM): 104%
- cell viability (Calu-3 [2]; 100 nM): 98.2%
- cell viability (Calu-3 [2]; 1000 nM): 96.7%
- cell viability (Calu-3 [2]; 10000 nM): 105%
- cell viability (HepG2 [3]; 1 nM): 105%
- cell viability (HepG2 [3]; 10 nM): 104%
- cell viability (HepG2 [3]; 100 nM): 109%
- cell viability (HepG2 [3]; 1000 nM): 102%
- cell viability (HepG2 [3]; 10000 nM): 92.1%
- cell viability (Vero E6 [5]; 1 nM): 103%
- cell viability (Vero E6 [5]; 10 nM): 100%
- cell viability (Vero E6 [5]; 100 nM): 97.3%
- cell viability (Vero E6 [5]; 1000 nM): 99.9%
- cell viability (Vero E6 [5]; 10000 nM): 98.5%
- relative viability EC50 (Caco-2 [15]): > 10000 nM
- relative viability EC50 (Calu-3 [6]): > 10000 nM
- relative viability EC50 (HepG2 [7]): > 10000 nM
- relative viability EC50 (Vero E6 [9]): > 10000 nM
- drug sensitivity score (Caco-2 [10]): 0.1
- drug sensitivity score (Calu-3 [11]): 0
- drug sensitivity score (HepG2 [12]): 0
- drug sensitivity score (Vero E6 [14]): 0

SMILES: Cc1cc(C(=O)NOCCO)c(Nc2ccc(I)cc2F)n(C)c1=O [AZD8330]
- cell viability (Caco-2 [1]; 1 nM): 86.1%
- cell viability (Caco-2 [1]; 10 nM): 83.3%
- cell viability (Caco-2 [1]; 100 nM): 70%
- cell viability (Caco-2 [1]; 1000 nM): 62.1%
- cell viability (Caco-2 [1]; 10000 nM): 66.3%
- cell viability (Calu-3 [2]; 1 nM): 78.8%
- cell viability (Calu-3 [2]; 10 nM): 69.5%
- cell viability (Calu-3 [2]; 100 nM): 44%
- cell viability (Calu-3 [2]; 1000 nM): 29.3%
- cell viability (Calu-3 [2]; 10000 nM): 25.7%
- cell viability (HepG2 [3]; 1 nM): 78.2%
- cell viability (HepG2 [3]; 10 nM): 34%
- cell viability (HepG2 [3]; 100 nM): 24%
- cell viability (HepG2 [3]; 1000 nM): 20.1%
- cell viability (HepG2 [3]; 10000 nM): 18.4%
- cell viability (U2OS [4]; 1 nM): 93.1%
- cell viability (U2OS [4]; 10 nM): 94%
- cell viability (U2OS [4]; 100 nM): 86.2%
- cell viability (U2OS [4]; 1000 nM): 37.3%
- cell viability (U2OS [4]; 10000 nM): 28.3%
- cell viability (Vero E6 [5]; 1 nM): 89.5%
- cell viability (Vero E6 [5]; 10 nM): 72.1%
- cell viability (Vero E6 [5]; 100 nM): 52%
- cell viability (Vero E6 [5]; 1000 nM): 47.7%
- cell viability (Vero E6 [5]; 10000 nM): 49.2%
- relative viability EC50 (Calu-3 [6]): 11.8 nM
- relative viability EC50 (HepG2 [7]): 2.6 nM
- relative viability EC50 (U2OS [8]): 265 nM
- relative viability EC50 (Vero E6 [9]): 7.2 nM
- drug sensitivity score (Caco-2 [10]): 12
- drug sensitivity score (Calu-3 [11]): 24.3
- drug sensitivity score (HepG2 [12]): 35
- drug sensitivity score (U2OS [13]): 13.3
- drug sensitivity score (Vero E6 [14]): 19.2
